We go through two compounds from patent US20050113458A1, “Use of 1-aminocyclohexane derivatives to modify deposition of fibrillogenic a-beta peptides in amyloidopathies” (Forest Laboratories, Inc., priority 2003, published 2005).

Entries after “also recorded” stand apart in the source; their conditions may differ. Where two headings read alike, the source gives them in different places.

Series [1] relates to APP/PS1 and NT mice. In words: Exploratory activity (TruScan automated activity monitor). The series is classed as in vivo. The following applies: 30 mg/kg/day in drinking water, 10-min recording. From the text: Transgenic mice expressing either human PS1 harboring the familial AD-linked A246E mutation or chimeric mouse/human APP695 harboring a human Aβ domain and mutations (K595N, M596L) linked to Swedish familial AD pedigrees (APPswe) (Borchelt et al., 1997) were back-crossed to C57BL/6J for 16 generations and then crossed together to generate double transgenic mice co-expressing both transgenes. In all tests, 8-month-old double-mutant male mice (APP/PS1; n=45) and their non-transgenic littermates (NT; n=36, ) were used. […] The therapeutic dose of memantine was defined as the dose producing a steady-state plasma drug level of ˜1 μM and was determined in 8-month-old male C57 BL/6J mice (background strain of the transgenic mice). […]
Exploratory activity: TruScan® (Coulbourn Instruments, CO, USA) automated activity monitor based on infrared photo detection was used for monitoring exploratory activity. […] Activity was measured for 10 min in two separate sessions separated by 48 h.
Statistical analysis All statistical analyses were performed using SPSS for Windows software, version 11.5.1 (SPSS, Chicago, Ill.). The effects of genotype, treatment, training day, and their interaction with the behavioral parameters of exploratory activity and performance in the Morris water maze were evaluated by analysis of variance (ANOVA) for repeated measures. […]

Series [2] concerns Aβ40. The series can be described thus: Aβ40 levels in conditioned media by sandwich ELISA. The series is classed as cell-based, human. To be noted: SK-N-SH cells; for levels of Aβ40 in conditioned media: 0.25-1.0 μg/ml (1-4 μM). The method, then: (§1) Cell culture and drug treatment. Human neuroblastoma (SK-N-SH, ATCC HTB-11, Biedler et al., Cancer Res. 1973, 33(11): 2643-52) cells were seeded at approximately 2×10^6 cells/well in a 6-well plate. Thereafter, drug concentrations of memantine were initiated at 0 μg/ml (control), 0.25 μg/ml (1 μM), 0.5 μg/ml (2 μM), and 1.0 μg/ml (4 μM) in MEM media supplemented with 1% FBS and 1× antibiotic. Treatment period was 12 days with a collection of conditioned media (CM) at 3 day intervals. Following collection, fresh memantine-media was added and the process repeated until harvest on day 12. The levels of both sAPP and Aβ40 were determined as described below.
Analysis of Aβ levels by ELISA. Quantitative solid phase sandwich ELISA (enzyme linked immunosorbent assay) was used to measure Aβ40 levels in the conditioned media samples. Specifically, an affinity purified anti-human Aβ (35-40) rabbit IgG was used as a capture antibody, and affinity purified HRP-conjugated anti-human Aβ (11-28) rabbit IgG Fab was used as a detection antibody (both reagents from IBL (Japan)). Since an antibody against Aβ (11-28) was used as a secondary conjugated antibody, human Aβ40 variants which cleaved at N-terminus sites were also detectable in the ELISA assay. TMB was used as a coloring agent (Chromogen). The measurement range was from 15.6 to ˜1,000 pg/ml (3.6 to ˜230.9 pmol/l).
(§2) Data Analysis. Data were analyzed from 3-6 independent cell culture experiments. Statistical analysis (e.g., analysis of variance and post-hoc tests for multiple comparisons) was performed using the SPSS program (Statistical Products and Services Solutions, Chicago, Ill.) and included the mean and the standard error of the mean.

The subject of series [3] is human neuroblastoma cells SK-N-SH. The series can be described thus: Cellular toxicity, LDH assay. The series is classed as cell-based. The following applies: 1-4 μM. The method, then: as §1
Cell Toxicity and Viability Assays. Cell viability in control and memantine-treated samples was measured using MTT (the tetrazolium dye 3-[4,5-dimethylthiazol-2-yl]-2,5-diphenyltetrazolium bromide). Cellular toxicity was measured uding lactate dehydrogenase (LDH) (Sigma, St. Louis, Mo.) assay.

For series [4], the system named is rat hippocampal cells. The following applies: Miguel-Hidalgo et al. 2002; cited from earlier work.
Series [5] relates to APP/PS1 and NT mice. In words: Morris water maze (spatial learning and memory). To be noted: 30 mg/kg/day; for time spent in the target area, probe trial: sixth day, 60 s, mean±sem. It is filed as in vivo. The text has this: (§3) Transgenic mice expressing either human PS1 harboring the familial AD-linked A246E mutation or chimeric mouse/human APP695 harboring a human Aβ domain and mutations (K595N, M596L) linked to Swedish familial AD pedigrees (APPswe) (Borchelt et al., 1997) were back-crossed to C57BL/6J for 16 generations and then crossed together to generate double transgenic mice co-expressing both transgenes. In all tests, 8-month-old double-mutant male mice (APP/PS1; n=45) and their non-transgenic littermates (NT; n=36, ) were used. […] The therapeutic dose of memantine was defined as the dose producing a steady-state plasma drug level of ˜1 μM and was determined in 8-month-old male C57 BL/6J mice (background strain of the transgenic mice).
Memantine treatment: Based on the pilot study, the dose of 30 mg/kg/day (see Results section for details) was chosen for the behavioral study and administered in drinking water for 3 weeks. Memantine was administered to 23 APP/PS1 mice and 19 NT mice. The placebo group (APP/PS1: n=22; NT: n=17) received drinking water without memantine. Behavioral testing started 2 weeks after treatment onset and continued for one week. After two weeks of treatment, mice were tested for exploratory activity, isolation-induced aggression, and performance in the Morris water maze.
Morris water maze: The Morris water maze was used to measure spatial learning and memory. The apparatus was a black plastic pool with a diameter of 120 cm. A black escape platform (square, 14×14 cm) was located 1.0 cm below (hidden) the water surface. The temperature of the water was kept constant throughout the experiment (20±0.5° C.), and a 10-min recovery period was allowed between the training trials. First, the mice were pre-trained to find and climb onto the platform for two days by using an alley (1 m×14 cm×25 cm) leading to the platform located 1 cm below the water. The training consisted of 8 consecutive days of testing, with 5 trials per day. […] During the first 5 days of testing the mice were trained with a hidden platform. The platform location was kept constant and the starting position varied between four constant locations at the pool rim. Mice were placed in the water with their nose pointing towards the wall at one of the starting points in a random manner. On the sixth day, the platform was removed and the mice were allowed to swim for 60 s to determine their search bias. On testing days 7 and 8, a black curtain was hung around the swimming pool in order to conceal all extra-maze visual cues. […] Timing of the latency to find the submerged platform was started and ended by the experimenter. A computer connected to an image analyzer (HVS Image®, Hampton, UK) monitored the swim pattern. During the water maze training, we measured swimming speed and latency to find the platform. The wall-swimming tendency (thigmotaxis) was assessed by dividing the pool into 3 concentric zones of equal surface area and calculating the time spent in the outer zone. Search bias during the probe trial was measured by calculating the time the mice spent in the vicinity of where the platform was previously located. We defined this as a target area centered on the platform with a diameter of 30 cm. This target area comprised 6.25% of the total surface area, thus a random swim for 60 s in the pool would yield a dwell time of 3.75 s in the target area during the probe trial.
Statistical analysis All statistical analyses were performed using SPSS for Windows software, version 11.5.1 (SPSS, Chicago, Ill.). The effects of genotype, treatment, training day, and their interaction with the behavioral parameters of exploratory activity and performance in the Morris water maze were evaluated by analysis of variance (ANOVA) for repeated measures. Attack latency from the isolation-aggression test was analyzed by two-way ANOVA with genotype and treatment as factors.

Series [6] can be described thus: Dose-finding pilot study: steady-state plasma concentration of memantine. The series is classed as in vivo, male C57BL/6J mice. The following applies: male, C57BL/6J, mouse, mean±SEM, read-out: steady-state plasma level.
From the text: as §3
Dose-finding pilot study: A pilot study was undertaken to determine the therapeutic dose of memantine [i.e., the dose of memantine producing a steady-state plasma drug level of around 1 μM, which several preclinical and clinical studies have indicated is therapeutic (Kornhuber and Quack, 1995; Zajaczkowski et al., 1996)] to be used in subsequent experiments in transgenic mice. Memantine (Forest Research Institute, Jersey City, N.J.) was administered orally (via drinking water) to male C57BL/6J mice at the doses of 10 mg/kg/day (n=10), 30 mg/kg/day (n=10) and 100 mg/kg/day (n=10) for 4 weeks. The placebo group (n=10) had drinking water without memantine. Blood samples were taken from the femoral vein 4 weeks after the initiation of drug treatment to determine the steady-state plasma concentration of memantine. Plasma samples were analyzed at Merz Pharmaceuticals GmbH (Frankfurt am Main, Germany) using a gas chromatograph system coupled with a mass selective detector (Kornhuber and Quack., 1995).

Series [7] has as its system Fisher 344 rats. The following applies: 30 mg/kg/day for 8 weeks, Barnes et al. 1996; cited from earlier work.
For series [8] the following is noted: humans; Kornhuber and Quack 1995; cited from earlier work.
Series [9] concerns APP/PS1 and NT mice. In words: Isolation-induced aggression test. To be noted: 30 mg/kg/day in drinking water. The series is classed as in vivo.
Description: Isolation-induced aggression: All test mice (‘residents’) had been housed in individual cages for at least 3 weeks prior to the start of this test. ‘Intruders’ were NT male C57B1/J6 mice, 16-20 weeks old at the time of testing, housed in groups of 4-8 since weaning. A randomly chosen intruder was placed in the resident's cage, and aggression of the resident was assessed by measuring attack latency, i.e. the time in seconds between the introduction of the intruder into the cage and the first attack by the resident. […]
Series [10] has as its system sAPP. The series can be described thus: sAPP levels in conditioned media by Western blotting (mAb22C11). The series is classed as cell-based, human. The following applies: SK-N-SH cells; for levels of sAPP in conditioned media: 0.25-1.0 μg/ml (1-4 μM). The method, then:
as §1
Analysis of sAPP levels by Western blotting. Levels of total sAPP in the CM samples were measured by denaturing polyacrylamide gel electrophoresis (SDS-PAGE) followed by the Western immunoblotting using mAb22C11 antibody. Samples were loaded on the gel at equal volume of conditioned media (30 μg protein/sample). The density of specific APP bands in the blot was quantified using the NIH Image software. Levels of APP were expressed as a percent of controls. Levels of the constitutively expressed β-actin protein were measured in parallel as an internal control.
as §2
In general terms: In western blotting, separated proteins are transferred to a membrane and probed.

Series [11] relates to human neuroblastoma cells. To be noted: Lahiri et al. 1998; cited from earlier work.

With `CC12CC3CC(C)(C1)CC(N)(C3)C2` [memantine, 1-amino-3,5-dimethyl adamantane], the “horizontal activity (distance traveled)” value in series [1] is “did not significantly affect”. Moreover, the “vertical activity (rearing)” value in series [1] was “did not significantly affect”. In addition, the “levels of Aβ40 in conditioned media” value in series [2] (day 3) is recorded as “no significant changes”; in series [2] (day 6, compared to negative control), “significant decrease”; in [2] (day 9, compared to negative control), “significant decrease”. The “Aβ40 levels in the conditioned media” value in series [2] (1-4 μM for up to 12 days) was “a decrease in its levels”. Besides, the “cellular toxicity (LDH)” value in [3] is given as “not affected; also recorded: no toxicity”. Further, the Aβ-induced apoptosis entry in series [4] was “protected”. Moreover, the “finding the visible platform” value in series [5] (APP/PS1 mice (FIG. 11B), days 7-8) is given as “did not show a significant improvement”. For the same compound, the “time spent in the outer zone of the pool (thigmotaxis)” value is listed as “significantly reduced” in series [5] (APP/PS1 mice, p=0.04) and “significantly reduced” in series [5] (NT mice, p=0.004). Also, the “time spent in the target area, probe trial” value in [5] (APP/PS1 mice) is 39.0 ± 2.0 s; in [5] (NT mice) it was 36.1 ± 2.6 s. Further, in series [5] (APP/PS1 mice, vs placebo-treated APP/PS1 mice, p=0.02), the “escape latency, hidden platform” value was “reduced”. In addition, the “escape latency (performance), hidden platform” value in series [5] (NT mice, p=0.09 (not significant)) is on record as “trend towards improved performance”. In addition, the “performance level, hidden platform, compared with placebo-treated NT mice” value in series [5] (memantine-treated APP/PS1 mice, Tukey's post-hoc p=0.96) was “did not differ”. Moreover, the concentration at 4 weeks turned out to be 490 ± 60 nM in [6] (10 mg/kg/day oral (drinking water)), 1140 ± 70 nM in series [6] (30 mg/kg/day oral (drinking water)) and 5540 ± 400 nM in series [6] (100 mg/kg/day oral (drinking water)). Further, the water maze learning result in series [7] is on record as “improved water maze learning”. In addition, the “therapeutically effective circulating concentration” value in [8] was “approximately 1 μM”. In addition, the “aggressive behavior (latency to attack the intruder)” value in [9] (APP/PS1 mice) is “not significantly modified”. In addition, the aggressive behavior result in [9] (NT mice) is reported as “did not increase”. The figures for the “sAPP levels in the conditioned media” value in [10] (1 μM for 6-12 days) and in [10] (2-4 μM for 6-12 days) were “trend towards a decrease” and “significantly decreased”, respectively. The “levels of sAPP in conditioned media” value in series [10] (day 3) is listed as “no significant changes”; in [10] (day 6) it was “dose-dependent decrease”; in series [10] (day 9 and day 12), “persisting or further decreasing”.

With `Nc1c2c(nc3ccccc13)CCCC2` [tacrine], in series [11], the “cellular damage or toxicity” value is listed as “absence of any detectable cellular damage or toxicity”, the “release of Aβ40” value is recorded as “reduce”, the “release of Aβ42” value is listed as “reduce” and the “release of sAPPα” value is “reduce”. Also, the “release of total Aβ” value in series [11] is recorded as “reduce”.
